Assay results published in patent EP4813992A1, “POLYARYL DERIVATIVE AND USE THEREOF” (Hangzhou HealZen Therapeutics Co., Ltd., priority 2023, dated 2025).
pIC50: −log10 of the molar value.

What was measured:
HPK1 kinase [1] = molecular target: T1, HPK1 kinase (Homo sapiens, UniProt Q92918); experiment: Activity of degrading HPK1 in Jurkat cells (Western blot, 24 h); type: cell-based; set-up: endogenous in cells; host or cells: Jurkat; conditions: HPK1 protein degradation, class symbols
Protocol: The adjusted samples are added to 5*loading buffer, boiled at 100°C for 10 minutes, and then the samples are loaded after the temperature is returned to room temperature. • 4) Detection of samples: Electrophoresis is performed using 10% SDS-PAGE with a sample loading volume of 8 µL/well. After the membrane transfer is completed, the samples are blocked with 5% BSA at room temperature for 1 h. After the residual blocking solution is washed away with TBST, HPK1 and GAPDH antibodies are added for incubation overnight at 4°C. Washing is performed 3 more times with TBST on a shaker, 10 minutes each time. After washing is completed, the secondary antibody is added for incubation at room temperature for 1 hour; then, washing is performed 3 more times with TBST on a shaker, 10 minutes each time; finally, ECL exposure solution is used to develop and image the bands to detect changes in HPK1 protein.

HPK1 kinase [2] = molecular target: T1, HPK1 kinase; experiment: Lantha screen assay, inhibitory effect on HPK1 kinase; type: biochemical; conditions: initial compound concentration 1 µM
Method in brief: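 Kinase pre-incubated with compound for 10 min at room temperature in 50 mM HEPES pH 7.5, 10 mM MgCl2, 4 mM DTT, 0.01% Tween-20, 0.01% BSA. Fluorescein-PKC substrate plus ATP then added for 90 min, stopped with antibody/EDTA for 60 min. Top concentration 1 µM; IC50 from four-parameter fit of inhibition vs log concentration.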

HPK1/GLK = experiment: Selectivity of degrading HPK1/GLK in Jurkat cells (Western blot, 24 h); type: cell-based; conditions: HPK1/GLK Fold = DC50 (HPK1) / DC50 (GLK)
Protocol: • 1) Cell plating: Cells are resuscitated, Jurkat cell lines in good growth condition are selected, and cells in the logarithmic growth phase are collected and counted; cell suspensions are seeded into 12 or 24-well plates (20W/well) and incubated overnight at 37°C in a 5% CO2 incubator. • 2) Preparation of compounds to be tested: The compounds to be tested are serially diluted with DMSO according to the experimental requirements and added to the corresponding cell wells, to be incubated at 37°C in a 5% CO2 incubator for 24 h. • 3) Preparation of samples: After the reaction of the compound to be tested is completed, the cells are collected in 1.5 mL EP tubes, and centrifuged at 1500 rpm for 5 min; after the supernatant is discarded, the cells are washed once with PBS, and the BCA protein is quantified and the concentration is adjusted. The adjusted samples are added to 5*loading buffer, boiled at 100°C for 10 minutes, and then the samples are loaded after the temperature is returned to room temperature. • 4) Detection of samples: Electrophoresis is performed using 10% SDS-PAGE with a sample loading volume of 10 µL/well. After the membrane transfer is completed, the samples are blocked with 5% skim milk at room temperature for 1 h. After the residual blocking solution is washed away with TBST, HPK1 and GLK antibodies are added for incubation overnight at 4°C. Washing is performed 3 more times with TBST on a shaker, 5 minutes each time. After washing is completed, the secondary antibody is added for incubation at room temperature in a shaker for 1 hour; then, washing is performed 3 more times with TBST on a shaker, 5 minutes each time; finally, the membrane is soaked in TBST and then subjected to chemiluminescence development. • 5) Data Processing: After the PVDF membrane is developed, the data are exported and plotted using Imang J, and the gray values of the protein bands are analyzed using Image J software; the DC50 curve is fitted using Graphpad Prism 9 software to obtain the results of the selectivity of the compound in degrading HPK1/GLK: HPK1/GLK Fold = DC50 (HPK1) / DC50 (GLK) . Table 3 Selectivity of the compounds of the invention in degrading HPK1/GLK

T1 sequence (Q92918 whole entry): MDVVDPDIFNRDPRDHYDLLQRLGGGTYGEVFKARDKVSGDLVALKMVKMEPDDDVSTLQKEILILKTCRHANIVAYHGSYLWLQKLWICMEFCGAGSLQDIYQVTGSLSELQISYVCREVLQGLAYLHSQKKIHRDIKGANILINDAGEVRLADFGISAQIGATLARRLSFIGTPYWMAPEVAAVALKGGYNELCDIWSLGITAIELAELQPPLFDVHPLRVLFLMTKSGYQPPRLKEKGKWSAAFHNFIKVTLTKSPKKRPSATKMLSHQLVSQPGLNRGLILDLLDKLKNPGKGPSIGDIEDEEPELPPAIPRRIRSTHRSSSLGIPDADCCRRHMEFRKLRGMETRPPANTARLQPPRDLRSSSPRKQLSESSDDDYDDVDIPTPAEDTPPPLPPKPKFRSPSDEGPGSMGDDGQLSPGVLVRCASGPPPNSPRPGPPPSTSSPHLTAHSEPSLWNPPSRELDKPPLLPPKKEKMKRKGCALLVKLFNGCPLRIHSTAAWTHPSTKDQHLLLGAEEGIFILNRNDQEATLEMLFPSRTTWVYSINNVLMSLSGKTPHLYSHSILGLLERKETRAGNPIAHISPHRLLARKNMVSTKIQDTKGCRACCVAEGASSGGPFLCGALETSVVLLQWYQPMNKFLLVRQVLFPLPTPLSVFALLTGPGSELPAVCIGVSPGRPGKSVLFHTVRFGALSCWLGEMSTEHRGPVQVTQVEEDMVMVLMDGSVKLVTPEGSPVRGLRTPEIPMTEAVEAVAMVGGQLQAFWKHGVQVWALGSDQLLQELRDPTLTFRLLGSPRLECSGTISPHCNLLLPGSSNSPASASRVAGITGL

| SMILES | DC50 (HPK1 kinase [1]) [nM] | pIC50 (HPK1 kinase [2]) | HPK1/GLK Fold (HPK1/GLK) |
| --- | --- | --- | --- |
| Cc1cc(-c2cnc3[nH]cc(-c4cnc(C(F)(F)F)s4)c3n2)cc(C)c1C1=CCN(CC2CN(c3ccc(N4CCC(=O)NC4=O)c(F)c3)C2)CC1 [compound 165] | < 10 | > 8.00 | ++++ (1000≤Fold) |
| Cc1cc(-c2cnc3[nH]cc(-c4cnc5cc(F)ccn45)c3n2)cc(C)c1C1=CCN(CC2CN(c3ccc(N4CCC(=O)NC4=O)c(F)c3)C2)CC1 [compound 167] | < 10 | > 8.00 | ++++ (1000≤Fold) |
| Cc1cc(-c2cnc3[nH]cc(-c4ccc(C(=O)N(C)C)cc4)c3n2)cc(C)c1C1=CCN(C2CN(c3ccc(C(=O)NC4CCC(=O)NC4=O)nc3)C2)CC1 (stereo not drawn) [compound 012] | – | > 8.00 | ++++ (1000≤Fold) |
| COc1ccc(C(=O)N2CC(N3CC=C(c4c(C)cc(-c5cnc6[nH]cc(-c7ccc(C(=O)N(C)C)cc7)c6n5)cc4C)CC3)C2)cc1N1CCC(=O)NC1=O [compound 061] | – | > 8.00 | ++++ (1000≤Fold) |
| Cc1cc(-c2cnc3[nH]cc(-n4cc(CC(F)(F)F)cn4)c3n2)cc(C)c1C1=CCN(CC2CN(c3ccc(N4CCC(=O)NC4=O)c(F)c3)C2)CC1 [compound 162] | < 10 | > 8.00 | ++++ (1000≤Fold) |
| Cc1cc(-c2cnc3[nH]cc(-n4cc(C5CC5)cn4)c3n2)cc(C)c1C1=CCN(CC2CN(c3ccc(N4CCC(=O)NC4=O)c(F)c3)C2)CC1 [compound 160] | < 10 | > 8.00 | ++++ (1000≤Fold) |
| Cc1cc(-c2cnc3[nH]cc(-c4ccc(C(=O)N(C)C)cc4)c3n2)cc(C)c1C1=CCN(CC2CN(c3ccc(C(=O)NC4CCC(=O)NC4=O)cc3)C2)CC1 (stereo not drawn) [compound 081] | < 10 | > 8.00 | ++++ (1000≤Fold) |
| Cc1cc(-c2cnc3[nH]cc(-c4ccc(C(=O)N(C)C)cc4)c3n2)cc(C)c1C1=CCN(CC2CCN(c3ccc(NC4CCC(=O)NC4=O)cc3F)CC2)CC1 (stereo not drawn) [compound 018] | < 10 | > 8.00 | ++++ (1000≤Fold) |
| Cc1cc(-c2cnc3[nH]cc(-n4cc(F)cn4)c3n2)cc(C)c1C1=CCN(CC2CN(c3ccc(N4CCC(=O)NC4=O)c(F)c3)C2)CC1 [compound 163] | < 10 | > 8.00 | ++++ (1000≤Fold) |
| Cc1cc(-c2cnc3[nH]cc(-c4ccc(C(=O)N(C)C)cc4)c3n2)cc(C)c1C1=CCN(CC2CN(c3cc(F)c(N4CCC(=O)NC4=O)c(F)c3)C2)CC1 [compound 079] | – | > 8.00 | ++++ (1000≤Fold) |
| Cc1cc(-c2cnc3[nH]cc(-c4ccc(C(=O)N(C)C)cc4)c3c2)cc(C)c1C1=CCN(CC2CN(C(=O)c3ccc(Cl)c(N4CCC(=O)NC4=O)c3)C2)CC1 [compound 130] | – | > 8.00 | ++++ (1000≤Fold) |
| Cc1cc(-c2cnc3[nH]cc(-c4ccc(C(=O)N(C)C)cc4)c3n2)cc(C)c1C1=CCN(CC2CN(c3ccc(C(=O)NC4CCC(=O)NC4=O)cn3)C2)CC1 (stereo not drawn) [compound 089] | – | > 8.00 | ++++ (1000≤Fold) |
| Cc1cc(N2CCC(CN3CC=C(c4c(C)cc(-c5cnc6[nH]cc(-c7ccc(C(=O)N(C)C)cc7)c6n5)cc4C)CC3)CC2)ccc1N1CCC(=O)NC1=O [compound 113] | < 10 | > 8.00 | ++++ (1000≤Fold) |
| Cc1cc(N2CC(CN3CC=C(c4ccc(-c5cnc6[nH]cc(-c7ccc(C(=O)N(C)C)cc7)c6c5)cc4C(C)C)CC3)C2)ccc1N1CCC(=O)NC1=O [compound 129] | < 10 | > 8.00 | ++++ (1000≤Fold) |
| Cc1cc(-c2c[nH]c3ncc(-c4cc(C)c(C5=CCN(CC6CN(c7ccc(N8CCC(=O)NC8=O)c(F)c7)C6)CC5)c(C)c4)nc23)ccc1C(=O)N(C)C [compound 146] | – | > 8.00 | ++++ (1000≤Fold) |
| Cc1cc(-c2cnc3[nH]cc(-n4cc(C(F)F)cn4)c3n2)cc(C)c1C1=CCN(CC2CN(c3ccc(N4CCC(=O)NC4=O)c(F)c3)C2)CC1 [compound 159] | < 10 | > 8.00 | – |
| Cc1cc(-c2cnc3[nH]cc(-c4ccc(C(=O)N(C)C)cc4)c3c2)cc(C)c1C1=CCN(CC2CN(c3ccc(N4CCC(=O)NC4=O)c(Cl)c3)C2)CC1 [compound 142] | < 10 | > 8.00 | – |
| Cc1cc(N2CC(CN3CC=C(c4c(C)cc(-c5cnc6[nH]cc(-c7ccc8c(c7)CCN(C)C8=O)c6c5)cc4C)CC3)C2)ccc1N1CCC(=O)NC1=O [compound 099] | < 10 | > 8.00 | ++++ (1000≤Fold) |
| Cc1cc(-c2cnc3[nH]cc(-n4ncc5c4CCC5)c3n2)cc(C)c1C1=CCN(CC2CN(c3ccc(N4CCC(=O)NC4=O)c(F)c3)C2)CC1 [compound 164] | < 10 | > 8.00 | – |
| Cc1cc(N2CC(C(C)N3CC=C(c4c(C)cc(-c5cnc6[nH]cc(-c7ccc(C(=O)N(C)C)cc7)c6n5)cc4C)CC3)C2)ccc1N1CCC(=O)NC1=O (stereo not drawn) [compound 042] | – | > 8.00 | ++++ (1000≤Fold) |
| Cc1cc(-c2cnc3[nH]cc(-c4csc(CO)c4)c3n2)cc(C)c1C1=CCN(CC2CN(c3ccc(N4CCC(=O)NC4=O)c(F)c3)C2)CC1 [compound 151] | < 10 | > 8.00 | – |
| Cc1nsc(-c2c[nH]c3ncc(-c4cc(C)c(C5=CCN(CC6CN(c7ccc(N8CCC(=O)NC8=O)c(F)c7)C6)CC5)c(C)c4)nc23)n1 [compound 171] | < 10 | > 8.00 | – |
| Cc1cc(-c2cnc3[nH]cc(-c4cc(Cl)sc4Cl)c3n2)cc(C)c1C1=CCN(CC2CN(c3ccc(N4CCC(=O)NC4=O)c(F)c3)C2)CC1 [compound 149] | < 10 | > 8.00 | – |
| Cc1cc(-c2cnc3[nH]cc(-c4ccc(C(=O)N(C)CC(C)O)cc4)c3n2)cc(C)c1C1=CCN(CC2CN(c3ccc(N4CCC(=O)NC4=O)c(F)c3)C2)CC1 (stereo not drawn) [compound 107] | – | > 8.00 | ++++ (1000≤Fold) |
| Cc1cc(-c2cnc3[nH]cc(-c4cn(CC(F)(F)F)nn4)c3n2)cc(C)c1C1=CCN(CC2CN(c3ccc(N4CCC(=O)NC4=O)c(F)c3)C2)CC1 [compound 148] | < 10 | > 8.00 | – |
| Cc1cc(-c2cnc3[nH]cc(-c4ccc(C(=O)N(C)C)cc4)c3n2)cc(C)c1C1=CCN(C2CC3(CCN(c4ccc(N5CCC(=O)NC5=O)c(F)c4)C3)C2)CC1 (stereo not drawn) [compound 117] | < 10 | > 8.00 | – |
| Cc1cc(-c2cnc3[nH]cc(-n4cc(C#N)cn4)c3n2)cc(C)c1C1=CCN(CC2CN(c3ccc(N4CCC(=O)NC4=O)c(F)c3)C2)CC1 [compound 161] | < 10 | > 8.00 | – |
| Cc1cc(-c2c[nH]c3ncc(-c4cc(C)c(C5=CCN(CC6CN(c7ccc(C(=O)NC8CCC(=O)NC8=O)cc7)C6)CC5)c(C)c4)nc23)ccc1C(=O)N(C)C (stereo not drawn) [compound 028] | < 10 | > 8.00 | – |
